Measurements: ChEMBL document CHEMBL5584266, “Novel selective proline-based peptidomimetics for human cathepsin K inhibition” (Bioorg Med Chem Lett, 2024)

Assays:
[1] = target: Procathepsin L (Homo sapiens, UniProt P07711); experiment: Binding affinity to human Cathepsin L assessed as inhibition constant
[2] = target: Cathepsin B (Homo sapiens, UniProt P07858); experiment: Binding affinity to human Cathepsin B assessed as inhibition constant
[3] = target: T1, Cathepsin K (Homo sapiens, UniProt P43235); experiment: Binding affinity to human Cathepsin K assessed as inhibition constant
T1 sequence (P43235 whole entry): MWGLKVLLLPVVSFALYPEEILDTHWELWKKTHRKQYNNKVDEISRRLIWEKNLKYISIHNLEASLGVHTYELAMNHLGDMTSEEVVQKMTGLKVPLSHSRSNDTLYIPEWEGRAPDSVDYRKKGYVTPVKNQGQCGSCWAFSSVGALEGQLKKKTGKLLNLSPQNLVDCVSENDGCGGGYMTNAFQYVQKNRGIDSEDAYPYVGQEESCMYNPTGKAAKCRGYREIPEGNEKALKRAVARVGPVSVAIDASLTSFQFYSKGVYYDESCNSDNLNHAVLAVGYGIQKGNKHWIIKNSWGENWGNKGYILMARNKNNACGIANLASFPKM

[4] = target: Cathepsin S (Homo sapiens, UniProt P25774); experiment: Binding affinity to human Cathepsin S assessed as inhibition constant
Chain of Cathepsin S (P25774 whole entry): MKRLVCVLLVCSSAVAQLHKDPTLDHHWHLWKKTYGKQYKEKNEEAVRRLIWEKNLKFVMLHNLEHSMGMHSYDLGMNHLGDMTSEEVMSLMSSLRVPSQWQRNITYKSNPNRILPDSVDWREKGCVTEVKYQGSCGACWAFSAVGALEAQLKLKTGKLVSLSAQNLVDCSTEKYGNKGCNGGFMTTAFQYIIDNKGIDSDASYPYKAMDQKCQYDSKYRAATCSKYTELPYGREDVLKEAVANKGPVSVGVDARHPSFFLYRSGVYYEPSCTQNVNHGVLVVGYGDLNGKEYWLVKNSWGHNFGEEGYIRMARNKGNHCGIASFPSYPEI

Chain of Procathepsin L (P07711 whole entry): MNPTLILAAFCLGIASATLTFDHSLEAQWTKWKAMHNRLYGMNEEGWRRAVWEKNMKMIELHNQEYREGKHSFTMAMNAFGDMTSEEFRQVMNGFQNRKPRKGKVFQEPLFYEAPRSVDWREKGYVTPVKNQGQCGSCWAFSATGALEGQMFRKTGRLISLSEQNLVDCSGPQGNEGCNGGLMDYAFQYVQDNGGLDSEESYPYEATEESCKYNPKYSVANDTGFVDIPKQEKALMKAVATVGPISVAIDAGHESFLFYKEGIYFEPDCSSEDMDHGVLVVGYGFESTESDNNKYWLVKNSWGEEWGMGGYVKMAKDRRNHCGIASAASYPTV

| Compound | Ki ([1]; read-out: pKi (converted)) | Ki [2] | Ki ([3]; read-out: Ki) | Ki ([1]; read-out: Ki) | Ki [4] | Ki ([3]; read-out: pKi (converted)) |
| --- | --- | --- | --- | --- | --- | --- |
| C[C@H]1C[C@@H](C(=O)NC2(C#N)CC2)N(C(=O)c2cc(C(C)(C)C)nn2C)C1 | > 100 µM | > 100 µM | – | – | – | – |
| CC(C)C[C@H](NC(=O)c1cc(C(C)(C)C)nn1C)C(=O)NC1(C#N)CC1 | 0.00158 µM | > 100 µM | ~0.008 µM | ~0.008 µM | 0.0794 µM | – |
| C[C@H]1C[C@@H](C(=O)NC2(C#N)CC2)N(C(=O)OC(C)(C)C)C1 | > 100 µM | > 100 µM | – | – | – | – |
| C[C@H]1C[C@@H](C(=O)NC2(C#N)CC2)N(S(=O)(=O)c2cc(C(F)(F)F)nn2C)C1 | > 100 µM | > 100 µM | – | – | – | – |
| C[C@H]1C[C@@H](C(=O)NC2(C#N)CC2)N(C(=O)c2ccccc2)C1 | > 100 µM | > 100 µM | – | – | – | – |
| C[C@H]1C[C@@H](C(=O)NC2(C#N)CC2)N(C(=O)Cc2ccccc2)C1 | > 100 µM | > 100 µM | – | – | – | – |
| C[C@H]1C[C@@H](C(=O)NC2(C#N)CC2)N(C(=O)c2cc(C(F)(F)F)nn2C)C1 | > 100 µM | > 100 µM | – | – | – | – |
| CC(C)(F)C[C@H](N[C@@H](c1ccc(-c2ccc(S(C)(=O)=O)cc2)cc1)C(F)(F)F)C(=O)NC1(C#N)CC1 [ODANACATIB] | – | – | – | – | – | 0.0002 µM |
